Measured values reported in patent publication US11103514B2, “Treatment of muscular dystrophy” (Corcept Therapeutics, Inc., priority 2010, dated 2021).

Tests used:
[1] = system: bitransgenic EpA960/MCM mice; test: Tamoxifen-inducible heart-specific DM1 mouse model, mortality; format: in vivo; settings: intraperitoneal mifepristone in saline, beginning 2 hours after first tamoxifen injection; 1-100 mg per kg body weight; mock-treated mice 80% died within 3 weeks
Method: In this model, EpA960 RNA is induced in the bitransgenic EpA960/MCM mice (F1 progeny) by 5 consecutive daily intraperitoneal injections of tamoxifen (20 mg/kg/d) leading to high mortality, conduction abnormalities, and systolic and diastolic dysfunction. […] Control or mock-treated mice are injected with saline solution alone. Each of the control and test groups typically includes 10-20 mice.
Typically, eighty percent of the mock-treated mice died within 3 weeks of RNA induction due to arrhythmias and/or contractile dysfunction. […] Description of experimental procedures can be found in, e.g., Wang et al., J Clin Invest. 2009; 119(12):3797-806.

[2] = percent of the daily dose; in one study (Kawai); cited from earlier work

## CC#C[C@]1(O)CC[C@H]2[C@@H]3CCC4=CC(=O)CCC4=C3[C@@H](c3ccc(N(C)C)cc3)C[C@@]21C [Mifepristone, 17-β-hydroxy-11-β-(4-dimethyl-aminophenyl)-17-α-(1-propynyl)-estra-4,9-dien-3-one]
[1]
  reduction of the mortality of bitransgenic mice: at least 10%
[2]
  daily dose excreted in the urine: less than 0.5%
